Results published in patent US20050208549A1, “Testing endosymbiont cellular organelles and compounds identifiable therewith” (priority 2000, published 2005).

Key:
Fibroblast cells = assay: NASBA ratio of mitochondrial RNA to mitochondrial DNA in cultured fibroblast cells; format: cell-based; settings: culture period of four weeks, antiviral drugs at 3 μM and 30 μM
Method: (§1) In Table 1, the primers and probes used in the examples are summarized. Standard NASBA nucleic acid amplification reactions were performed in a 20 μl reaction volume and contained: 40 mM Tris-pH 8.5, 70 mM KCl, 12 mM MgCl2, 5 mM dithiothreitol, 1 mM dNTPs (each), 2 mM rNTPs (each), 0.2 μM primer (each), 0.05 μM molecular beacon, 375 mM sorbitol, 0.105 μg/μl bovine serum albumin, 6.4 units AMV RT, 32 units T7 RNA polymerase, 0.08 units RNAse H and input nucleic acid. The complete mixture, except the enzymes, sorbitol and/or bovine serum albumin was, prior to adding the enzyme mixture, heated to 65° C. for two minutes in order to denature any secondary structure in the RNA and to allow the primers to anneal. After cooling the mixture to 41° C., the enzymes were added. The amplification took place at 41° C. for 90 minutes in a fluorimeter (CytoFluor 2000) and the fluorescent signal was measured every minute (using the filter set 530/25 nm and 485/30 nm). […]
(§2) To achieve quantification, a dilution series of target sequences for a particular primer set was amplified and the time points at which the reactions became positive (the time to positivity, TTP) were plotted against the input amounts of nucleic acid. This way a calibration curve was created that could be used to read TTP values of reactions with unknown amounts of input and deduce the input amount. […]

[1] = system: peripheral blood mononuclear cells (PBMCs); assay: NASBA ratio of mitochondrial DNA to chromosomal DNA in cultured PBMCs; format: cell-based; settings: culture period of five days, 6 μM and 60 μM
Method: as §1, §2

## Cc1cn([C@H]2C[C@H](N=[N+]=[N-])[C@@H](CO)O2)c(=O)[nH]c1=O [AZT]
Fibroblast cells
  change in mitochondrial RNA to mitochondrial DNA ratio: no measurable change
[1]
  change in ratio of mitochondrial DNA to chromosomal DNA: no measurable change
